Laboratory results taken from US20240108734A1, “METHODS FOR TREATING AND AMELIORATING CANCER” (The Regents of the University of California, priority 2021, published 2024).
“Also recorded” adds a separate entry of the source.

Assays:
[1] = tested on: normal cord blood CD34+ cells; assay: Normal HSC (cord blood CD34+) engrafted mouse model; assay type: in vivo, mice
Procedure: FIG. 9A-B graphically illustrate data showing that normal HSC mouse xenograft models were established with normal cord blood CD34^+ cells by intrahepatic injection into neonatal Rag2^−/− c^−/− mice; FACS analysis of mice treated with either vehicle (0.9% NS), mismatch control (30 mg/kg) or imetelstat (30 mg/kg) followed by quantification of human CD45^+ cells in BM (FIG. 9A) and in spleen (FIG. 9B);

[2] = tested on: LSC; assay: Serial transplantation of BC CML LSC mouse model (LSC self-renewal); assay type: in vivo, mice
Procedure: FIG. 4H. Self-renewal capacity of human progenitor cells was evaluated in serially transplanted mouse models. FACS analysis of percentage of live human CD34^+CD38^+Lin^− progenitor cells following serial engraftment of cells derived from mice treated with vehicle (red), mismatch (blue) or imetelstat (green).
FIG. 4I. Kaplan-Meier survival curves of mice transplanted with CD34^+ cells selected from imetelstat treated mouse BM (green) compared with mismatch controls (blue).

[3] = tested on: telomere length; assay: FlowFish telomere length assay in LSC mouse models; assay type: in vivo, human; settings: imetelstat compared with mismatch control; p<0.05, t test, ANOVA
Procedure: (§1) Telomere length was determined using the Telomere PNA Kit/FITC for Flow Cytometry (Dako, Cat #K5327) with a MACSQuant10 and analyzed with FlowJo software. The Relative Telomere Length (RTL) was calculated by dividing the mean fluorescence intensity (MFI) of the test sample G0/G1 population by the MFI of the normal peripheral blood reference G0/G1 population using the Cycletest™ Plus DNA Kit (BD, Cat #340242). Telomerase activity was determined using the TRAPeze Kit RT Telomerase Detection Kit (Millipore, Catalog No. S7710).
Samples were selected from engrafted mouse bone marrow or spleen with human CD45+ immunomagnetic beads (Miltenyi). Telomere length was determined by using the Telomere PNA Kit/FITC for Flow Cytometry (Dako, Cat #K5327). Samples were run on the MACSQuant10 and analyzed with FlowJo software. The Relative Telomere Length (RTL) was calculated. The 1301 cell line was utilized as control cells. The DNA index was determined with the (BD Cycletest™ Plus DNA Kit, Cat #340242). The DNA index was obtained by dividing the MFI of the test sample G0/G1 population by the WI of the normal reference G0/G1 population. Human peripheral blood mononuclear cells were used as “the normal reference G0/G1 population” for calculating the DNA index. Telomerase activity was determined by using TRAPeze Kit RT Telomerase Detection Kit (Millipore, Catalog No. S7710). […]

[4] = biological target: T1, telomerase (Homo sapiens, UniProt O14746); assay: TRAP telomerase activity assay in BC CML engrafted human CD45+ cells; assay type: in vivo; settings: imetelstat compared with vehicle, p<0.0002
T1 construct: Cell lysates from 5×10^5 CD34^+ selected cells from BC CML engrafted mice or K562 cells were prepared; endogenous in cells; host or cells: human CD45+ / CD34+ cells selected from bone marrow or spleen of BC CML engrafted mice
T1 sequence (O14746 whole entry): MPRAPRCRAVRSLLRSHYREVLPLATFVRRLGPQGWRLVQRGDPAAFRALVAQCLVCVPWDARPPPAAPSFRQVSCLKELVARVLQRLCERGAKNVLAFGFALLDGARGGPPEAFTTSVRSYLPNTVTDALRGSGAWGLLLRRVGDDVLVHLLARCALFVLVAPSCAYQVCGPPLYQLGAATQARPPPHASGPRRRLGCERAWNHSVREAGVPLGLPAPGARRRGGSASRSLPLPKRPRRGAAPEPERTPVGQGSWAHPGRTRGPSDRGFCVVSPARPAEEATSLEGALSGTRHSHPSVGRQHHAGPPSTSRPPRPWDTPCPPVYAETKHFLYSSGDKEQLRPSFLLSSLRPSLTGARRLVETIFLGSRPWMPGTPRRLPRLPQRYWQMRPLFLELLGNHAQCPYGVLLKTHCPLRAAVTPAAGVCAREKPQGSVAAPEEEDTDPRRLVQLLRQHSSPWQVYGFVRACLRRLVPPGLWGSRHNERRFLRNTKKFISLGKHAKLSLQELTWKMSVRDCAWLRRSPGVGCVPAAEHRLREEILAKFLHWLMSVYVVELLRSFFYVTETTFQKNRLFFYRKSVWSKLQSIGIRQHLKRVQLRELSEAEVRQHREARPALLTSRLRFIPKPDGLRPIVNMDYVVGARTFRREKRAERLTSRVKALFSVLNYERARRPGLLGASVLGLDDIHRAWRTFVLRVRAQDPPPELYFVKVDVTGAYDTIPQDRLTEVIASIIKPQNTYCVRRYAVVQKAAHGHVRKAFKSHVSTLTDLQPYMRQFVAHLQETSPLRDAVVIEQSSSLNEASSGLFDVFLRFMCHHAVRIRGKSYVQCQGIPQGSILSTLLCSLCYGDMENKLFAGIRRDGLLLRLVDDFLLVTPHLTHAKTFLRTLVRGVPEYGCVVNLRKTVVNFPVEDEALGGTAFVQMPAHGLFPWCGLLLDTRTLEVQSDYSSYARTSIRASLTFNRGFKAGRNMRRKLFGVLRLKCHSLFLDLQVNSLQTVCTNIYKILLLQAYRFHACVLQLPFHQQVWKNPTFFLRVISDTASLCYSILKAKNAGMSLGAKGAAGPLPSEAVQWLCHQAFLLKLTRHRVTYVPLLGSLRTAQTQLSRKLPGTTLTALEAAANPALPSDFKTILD
T1 sequence (O60832 whole entry partner): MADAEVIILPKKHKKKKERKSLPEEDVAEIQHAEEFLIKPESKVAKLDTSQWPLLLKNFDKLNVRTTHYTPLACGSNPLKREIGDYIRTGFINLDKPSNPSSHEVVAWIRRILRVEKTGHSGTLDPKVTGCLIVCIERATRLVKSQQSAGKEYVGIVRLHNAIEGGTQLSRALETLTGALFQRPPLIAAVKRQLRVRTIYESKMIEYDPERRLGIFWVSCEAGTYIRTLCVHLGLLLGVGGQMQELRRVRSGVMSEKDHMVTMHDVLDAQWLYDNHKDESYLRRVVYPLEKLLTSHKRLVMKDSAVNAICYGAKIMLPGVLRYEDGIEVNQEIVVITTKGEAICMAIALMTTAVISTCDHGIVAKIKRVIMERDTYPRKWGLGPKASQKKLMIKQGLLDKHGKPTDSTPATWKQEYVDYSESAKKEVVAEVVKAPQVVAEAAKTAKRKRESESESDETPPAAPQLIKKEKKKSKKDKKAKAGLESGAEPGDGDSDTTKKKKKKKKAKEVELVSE
T1 sequence (Q9NX24 whole entry partner): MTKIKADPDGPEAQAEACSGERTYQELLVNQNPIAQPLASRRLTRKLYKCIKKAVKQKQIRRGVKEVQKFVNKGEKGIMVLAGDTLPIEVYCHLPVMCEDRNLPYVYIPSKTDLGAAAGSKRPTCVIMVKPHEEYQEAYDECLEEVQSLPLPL
T1 sequence (Q9NPE3 whole entry partner): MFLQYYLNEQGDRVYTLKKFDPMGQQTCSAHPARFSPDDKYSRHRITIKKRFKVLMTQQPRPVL
T1 sequence (Q9NY12 whole entry partner): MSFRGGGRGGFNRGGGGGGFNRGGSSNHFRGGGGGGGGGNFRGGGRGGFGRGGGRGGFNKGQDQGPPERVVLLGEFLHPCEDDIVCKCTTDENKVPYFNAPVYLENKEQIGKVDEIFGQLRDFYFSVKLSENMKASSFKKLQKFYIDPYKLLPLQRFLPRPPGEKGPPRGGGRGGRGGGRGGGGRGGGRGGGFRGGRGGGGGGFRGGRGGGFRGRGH
T1 sequence (Q9BUR4 whole entry partner): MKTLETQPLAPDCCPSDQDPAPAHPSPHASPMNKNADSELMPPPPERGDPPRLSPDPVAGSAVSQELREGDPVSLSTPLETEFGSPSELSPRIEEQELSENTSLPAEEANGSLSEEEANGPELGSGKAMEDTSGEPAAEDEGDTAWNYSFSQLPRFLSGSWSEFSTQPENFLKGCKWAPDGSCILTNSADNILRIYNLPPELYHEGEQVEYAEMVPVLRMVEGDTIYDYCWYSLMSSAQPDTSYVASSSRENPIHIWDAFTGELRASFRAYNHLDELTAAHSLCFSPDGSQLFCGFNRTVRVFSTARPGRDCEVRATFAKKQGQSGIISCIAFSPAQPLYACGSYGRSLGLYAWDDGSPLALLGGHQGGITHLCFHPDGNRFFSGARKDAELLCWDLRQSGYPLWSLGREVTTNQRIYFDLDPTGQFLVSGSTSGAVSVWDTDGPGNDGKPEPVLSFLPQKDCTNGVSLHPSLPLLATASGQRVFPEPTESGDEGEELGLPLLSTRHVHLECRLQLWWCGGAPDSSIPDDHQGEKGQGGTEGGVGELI
Procedure: as §1
Samples were selected from engrafted mouse bone marrow or spleen with human CD45+ immunomagnetic beads (Miltenyi). Telomere length was determined by using the Telomere PNA Kit/FITC for Flow Cytometry (Dako, Cat #K5327). Samples were run on the MACSQuant10 and analyzed with FlowJo software. The Relative Telomere Length (RTL) was calculated. The 1301 cell line was utilized as control cells. The DNA index was determined with the (BD Cycletest™ Plus DNA Kit, Cat #340242). […] Telomerase activity was determined by using TRAPeze Kit RT Telomerase Detection Kit (Millipore, Catalog No. S7710). […]
FIG. 5D. Telomerase activity in BC CML engrafted human CD45^+ cells, as measured by TRAP assay, in vehicle (red), mismatch control (blue) and imetelstat (green) treated BC CML mice.

[5] = tested on: ADAR1p150; assay: ADAR1p150 expression in human CD45+ cells from treated BC CML mice; assay type: in vivo; settings: p=0.016
From the text: FIG. 5G. Boxplot depicting Log 2 (cpm) expression of ADAR1p150 by RNA-seq of human CD45^+ cells isolated from vehicle (red), mismatch control (blue) and imetelstat (green) treated BC CML mouse cells. The p-values from Student's t-tests are shown (Student's t-test: vehicle: p=0.337, imetelstat tx: p=0.016).

[6] = tested on: ADAR1-mediated RNA editing; assay: RNA-seq quantification of ADAR1-mediated A-to-I RNA editing in treated BC CML mice; assay type: in vivo; settings: human cells from imetelstat treated LSC mouse models; p=0.037
Procedure: For gene expression and RNA editing analysis, RNA editing sites were identified in REDIportal^34 (see the Supplementary Appendix). […] Gene Set Enrichment Analysis was performed with the Bioconductor package GSVA (see the Supplementary Appendix)^36. For in vitro and in vivo experiments, the Student's t-test was utilized to evaluate statistical significance of normally distributed data and Wilcoxon tests were utilized for non-normally distributed data with a p value of <0.05.
To quantify adenosine-to-inosine (A-to-I) RNA editing events induced by ADAR1, RNA reads were aligned using 2-pass alignment with STAR 2.5.2b 2-pass alignment. […] All sites were kept if a minimum of three alternative allele carrying reads and ten total reads and a minimum allele frequency of 0.10 were present. […] We only predicted RNA editing sites with >10 reads/site to compare mismatches and excluded sites that were identified as DNA variants. […] To account for multiple testing, adjusted p-values were calculated using the Benjamini-Hochberg procedure and genes with events below an adjusted p-value of 0.05 were called significant and retained in the final lists.
FIG. 5H. A boxplot depicting detectable RNA edits per million aligned reads in human CD45^+ cells derived from vehicle (red), mismatch control (blue) and imetelstat (green) treated BC CML mouse models. […]

imetelstat was tested, and the “effect on normal hematopoietic stem cells” value ([1]; at doses reducing malignant RNA editing) was “spared normal hematopoietic stem cells”, the “normal cord blood engraftment (human CD45+ cells)” value ([1]; imetelstat 30 mg/kg vs vehicle and mismatch control, BM and spleen) was “no significant decrease; also recorded: does not reduce” and the “LSC engraftment after serial transplantation” value ([2]; compared with mismatch control treatment, p=0.04) was “significantly less”. The “survival rates of serially transplanted mice (Kaplan-Meier)” value ([2]; compared with mismatch controls, p=0.05) was “longer”, the “telomere length (FlowFish assay)” value [3] was “normalization of telomere length” and the “telomerase activity by TRAP assay” value [4] was “reduction”. For the same substance, the ADAR1p150 expression [5] was “significantly reduced” and the “ADAR1-mediated adenosine to inosine RNA editing by RNA-seq” value [6] was “significant reduction; also recorded: significantly reduced”.
